Data on four compounds can be found in US7285682B2, “Terphenyl guanidines as β-secretase inhibitors” (Wyeth, priority 2005, dated 2007).

For data set [1], the target named is human BACE1 (Homo sapiens, UniProt P56817). The data set is described as follows: Fluorescent kinetic assay (BACE-1, FRET peptide substrate WABC-6). Conditions: 10 nM enzyme, 25 μM substrate WABC-6, 50 mM Na-Acetate pH 4.5, room temperature. It counts as biochemical. Here is the method:
Evaluation of BACE-1 Binding Affinity of Test Compounds
1. Fluorescent Kinetic Assays • Final Assay Conditions: 10 nM human BACE1 (or 10 nM Murine BACE1, 1.5 nM human BACE2), 25 μM substrate (WABC-6, MW 1549.6, from AnaSpec), Buffer: 50 mM Na-Acetate, pH 4.5, 0.05% CHAPS, 25% PBS, room temperature. Na-Acetate was from Aldrich, Cat.# 24,124-5, CHAPS was from Research Organics, Cat. # 1304C 1×, PBS was from Mediatech (Cellgro), Cat# 21-031-CV, peptide substrate AbzSEVNLDAEFRDpa was from AnaSpec, Peptide Name: WABC-6 • Determination of stock substrate (AbzSEVNLDAEFRDpa) concentration: ˜25 mM stock solution is made in DMSO using the peptide weight and MW, and diluted to ˜25 μM (1:1000) in 1×PBS. Concentration is determined by absorbance at 354 nm using an extinction coefficient ε of 18172 M^−1 cm^−1, the concentration of stock substrate is corrected, and the substrate stock stored in small aliquots in −80° C. [Substrate Stock]=ABS^354 nm*10^6/18172 ([…]) The extinction coefficient ε^354 nm was adapted from TACE peptide substrate, which had the same quencher-fluorophore pair. • Determination of Stock Enzyme Concentration: the stock concentration of each enzyme is determined by absorbance at 280 nm using ε of 64150 M^−1 cm^−1 for hBACE1 and MuBACE1, 62870 M^−1 cm^−1 for hBACE2 in 6 M Guanidinium Hydrochloride (from Research Organics, Cat. # 5134G-2), pH ˜6. The extinction Coefficient ε^280 nm for each enzyme was calculated based on known amino acid composition and published extinction coefficients for Trp ([…]) and Tyr ([…]) residues (Anal. Biochem. 182, 319-326). • Dilution and mixing steps: total reaction volume: 100 μL
2× inhibitor dilutions in buffer A (66.7 mM Na-Acetate, pH 4.5, 0.0667% CHAPS) were prepared,
4× enzyme dilution in buffer A (66.7 mM Na-Acetate, pH 4.5, 0.0667% CHAPS) were prepared,
100 μM substrate dilution in 1×PBS was prepared, and […]

Sequence of human BACE1 (P56817 46-501): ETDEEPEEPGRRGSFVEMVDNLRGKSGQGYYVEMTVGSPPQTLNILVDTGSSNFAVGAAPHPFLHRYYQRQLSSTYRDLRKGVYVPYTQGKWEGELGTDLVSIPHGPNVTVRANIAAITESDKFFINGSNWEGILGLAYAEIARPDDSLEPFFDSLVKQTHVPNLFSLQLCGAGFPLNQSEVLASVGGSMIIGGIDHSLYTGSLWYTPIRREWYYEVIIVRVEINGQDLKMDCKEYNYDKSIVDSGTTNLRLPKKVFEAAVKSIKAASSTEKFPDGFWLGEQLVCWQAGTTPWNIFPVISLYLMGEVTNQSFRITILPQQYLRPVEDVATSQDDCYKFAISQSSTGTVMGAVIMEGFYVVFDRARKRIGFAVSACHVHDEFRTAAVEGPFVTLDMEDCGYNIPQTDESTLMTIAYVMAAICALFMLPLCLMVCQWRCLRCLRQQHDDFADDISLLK

Regarding `N=C(N)NC(=O)Cc1c(-c2ccccc2)cccc1-c1ccccc1.O=C(O)C(F)(F)F` [Example 1, N-(1,1′:3′,1″-Terphenyl-2′-ylacetyl)guanidine TFA salt], the melting point (commonly the temperature, or range, at which the solid turns liquid) is 64 to 67 °C. The IC50 – broadly, the midpoint of a concentration-inhibition curve – in data set [1] turned out to be 15 µM.
In turn, `N=C(N)NC(=O)Cc1c(-c2ccccc2)cccc1-c1ccc2ccccc2c1` [Example 2, N-{[3-(2-Naphthyl)-1,1′-biphenyl-2-yl]acetyl}guanidine] returned a melting point of 36.8 to 36.9 °C. The compound further displayed an IC50 in data set [1] of 29.6 µM.
`CC(C)(C)c1ccc(-c2cccc(-c3ccccc3)c2CC(=O)NC(=N)N)cc1` [Example 3, N-[(4-tert-Butyl-1,1′:3′,1″-terphenyl-2′-yl)acetyl]guanidine] gave a melting point of 171 to 174 °C. For the same compound, the IC50 in data set [1] came to 13.9 µM.
Consider `NC(N)=NC(=O)Cc1c(-c2ccccc2)cccc1-c1ccc(Oc2ccccc2)cc1` [Example 4, N″-[(4-Phenoxy-1,1′:3′,1″-terphenyl-2′-yl)acetyl]guanidine], for which, in data set [1], 5.95 µM corresponded to half-maximal inhibition (IC50).
